From paper PMC8976378, “NADH oxidase of Mycoplasma hyopneumoniae functions as a potential mediator of virulence” (BMC Veterinary Research, 2022)

Molecular target: rNOX (NADH oxidase, NOX) (Mesomycoplasma hyopneumoniae, UniProt E4QS87)
Assay: NADH oxidation, absorbance at […] nm
Format: biochemical
Conditions: 0.5 mM NADH; 10 uM FAD added; 0.1 M potassium phosphate pH 7.5, 1 mM dithiothreitol; 25 °C; 5 ug/mL enzyme

Chain of rNOX (NADH oxidase, NOX) (E4QS87 entry or part of it): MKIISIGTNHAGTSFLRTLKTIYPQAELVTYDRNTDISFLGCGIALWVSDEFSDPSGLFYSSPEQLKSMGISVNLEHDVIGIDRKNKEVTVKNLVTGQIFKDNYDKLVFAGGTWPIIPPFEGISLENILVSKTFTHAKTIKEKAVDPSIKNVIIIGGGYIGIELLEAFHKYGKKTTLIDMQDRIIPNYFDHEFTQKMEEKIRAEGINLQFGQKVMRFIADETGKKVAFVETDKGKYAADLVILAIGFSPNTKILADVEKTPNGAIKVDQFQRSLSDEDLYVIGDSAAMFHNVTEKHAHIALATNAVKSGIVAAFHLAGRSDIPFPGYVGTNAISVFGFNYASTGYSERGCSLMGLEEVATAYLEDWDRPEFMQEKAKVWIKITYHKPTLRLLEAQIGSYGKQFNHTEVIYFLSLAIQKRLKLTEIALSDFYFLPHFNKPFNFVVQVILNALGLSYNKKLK

## NC(=O)C1=CN([C@@H]2O[C@H](COP(=O)(O)OP(=O)(O)OC[C@H]3O[C@@H](n4cnc5c(N)ncnc54)[C@H](O)[C@@H]3O)[C@@H](O)[C@H]2O)C=CC1 [NADH]
  NADH oxidation, absorbance at 340 nm: enzymatic activity of purified rNOX was determined by measuring the oxidation of NADH to NAD^+
